PubChem BioAssay (NCI)
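Cultured in 96-well plates, cells were exposed to test compound for 48 hours across five concentrations. At the TGI there is no net growth.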

Tests used:
Experiment in all cases: growth of human tumour cells (NCI), 48 h
[1] = system: A549 NSCLC
[2] = system: ACHN renal
[3] = system: EKVX NSCLC
[4] = system: IGROV1 ovarian
[5] = system: M14 melanoma
[6] = system: MALME-3M melanoma
[7] = system: MDA-MB-435
[8] = system: NCI-H226 lung
[9] = system: NCI-H460 lung
[10] = system: NCI-H522 lung
[11] = system: OVCAR-3 ovarian
[12] = system: OVCAR-4 ovarian
[13] = system: OVCAR-8 ovarian
[14] = system: RPMI-8226 leukemia
[15] = system: SK-MEL-2 melanoma
[16] = system: SN12C renal
[17] = system: SNB-19 CNS
[18] = system: SR leukemia
[19] = system: UO-31 renal
[20] = system: A498 renal

SMILES	TGI [1] [µM]	TGI [2] [µM]	TGI [3] [µM]	TGI [4] [µM]	TGI [5] [µM]	TGI [6] [µM]	TGI [7] [µM]	TGI [8] [µM]	TGI [9] [µM]	TGI [10] [µM]	TGI [11] [µM]	TGI [12] [µM]	TGI [13] [µM]	TGI [14] [µM]	TGI [15] [µM]	TGI [16] [µM]	TGI [17] [µM]	TGI [18] [µM]	TGI [19] [µM]	TGI [20] [µM]
CN(C)CCN(C(=Nc1ccccc1)N1CCCC1)c1ccccc1	> 100	> 100	> 100	> 100	> 100	> 100	> 100	> 100	> 100	> 100	> 100	> 100	> 100	82.3	> 100	> 100	> 100	> 100	> 100	–
O=C(/C=C(\O)c1ccccc1)c1cc(-c2ccccc2)n(-c2ccccc2)n1	24.9	23.9	> 100	79.9	55.7	45.5	> 100	25.2	98.4	42.4	> 100	–	15.3	6.1	> 100	39.9	> 100	5.2	39.9	> 100
NCc1cc(O)c(O)c(O)c1	> 100	> 100	> 100	> 100	> 100	> 100	–	> 100	> 100	> 100	> 100	> 100	> 100	> 100	> 100	> 100	> 100	> 100	> 100	> 100
O=C(CCN1CCOCC1)C(=Cc1ccccc1)C(=O)CCN1CCOCC1	35.8	–	5.59	20.3	–	4.64	–	29.4	28.3	2.85	14.4	19.9	9.88	4.14	22.6	7.45	28.3	–	27.6	31.4
N#Cc1c(N2CCOCC2)[nH]c(=O)c(C(c2c(Cl)cccc2Cl)c2c(O)c(C#N)c(N3CCOCC3)[nH]c2=O)c1O	> 100	29.6	39	35.3	42.9	26.8	30.2	37.5	> 100	28.2	30.4	32.9	34.1	60.8	39.5	34.5	29.6	26.3	33.5	> 100
O=C(N/N=C\C(F)(F)F)c1ccncc1	–	–	–	> 100	> 100	> 100	> 100	> 100	> 100	–	> 100	> 100	> 100	> 100	> 100	> 100	> 100	> 100	> 100	> 100
COc1cc(C2C(Cl)C(=O)N2NC(=O)c2ccc(NC(C)=O)cc2OC)ccc1O (stereo unspecified)	> 100	50.2	29.2	79.7	33.9	53.6	> 100	43.7	–	23	53.5	> 100	73.3	13.4	29.9	35	47.4	> 100	95.5	37.5
C[N+](C)=c1nc(N2CCc3ccccc3C2)ss1	> 100	> 100	–	> 100	> 100	> 100	–	> 100	> 100	> 100	> 100	> 100	> 100	> 100	> 100	> 100	> 100	> 100	> 100	> 100
